From patent US11078202B2, “β-lactamase inhibitor and use thereof” (priority 2018, dated 2021)
Where a name gives a salt, the structure may show the parent alone.

Columns and labels:
Format in all cases: cell-based
[1] = system: Klebsiella pneumoniae XNWB 0003; experiment: MIC assay of test compounds combined with imipenem (4 μg/mL); details: imipenem 4 μg/mL fixed
Method: (§1) The bacterial strains used for the minimum inhibitory concentration (MIC) test were frozen in a −80° C. ULT freezer and thawed 2 days before use. A small amount of frozen bacterial strains were scraped using a sterile inoculating loop, streaked onto a TSA solid culture dish for inoculation, and then cultured for 20-24 h at 35±2° C. in a normal atmospheric environment. 5-10 colonies with similar morphology were picked from the culture dish using a sterile inoculating loop and then re-streaked onto a suitable solid culture dish. Then the dish was placed into a normal incubator for culture for 20-24 h at 35±2° C. 5-10 single bacterial colonies were picked from the solid culture dish, resuspended in 500 μL of 0.9% NaCl, and adjusted to an OD600 of 0.1-0.15 with a spectrophotometer. The bacteria were then diluted 300-fold with 1.1×CAMHB. […] Dilution of test compounds: […] 2 μL of each compound in the dilution master plate of the test compounds was transferred to the corresponding well of the assay plates. In the mean time, 2 μL of 100% DMSO was transferred to the compound-free wells (GC and SC wells). (1) 8 μL of imipenem in the additive plate of imipenem was transferred to the corresponding wells of the assay plates; (2) 8 μL of ceftazidime in the additive plate of ceftazidime was transferred to the corresponding wells of the assay plates; (3) 8 μL of ampicillin in the additive plate of ampicillin was transferred to the corresponding wells of the assay plates. 90 μL of corresponding bacterial inocula were added to wells (except for SC wells) of the assay plates. After addition, the 6 assay plates were covered by sterile covers. The mixtures in the assay plates were centrifuged by a centrifuge at 1000 rpm for 30 s, and mixed uniformly by oscillating with a microplate oscillator at 800 rpm for 1 min, and then cultured in a common incubator for 16-20 h at 35±2° C. The minimum inhibitory concentration of each compound was recorded by reference to guidelines from the Clinical and Laboratory Standards Institute. […] The effect of the test compounds in combination with imipenem, ceftazidime, and ampicillin was also tested. […] The bacterial inocula in the assay plates were resuscitated from TSA and diluted in CAMHB, while growth controls (GC wells) and sterile controls (SC wells) were set up in the assay plates. The minimum inhibitory concentration of each compound combination against different bacteria was observed and recorded after the assay plates were incubated in a common incubator at 35±2° C. for 16-20 h, and the results are shown in Tables 1-3.

[2] = system: Klebsiella pneumoniae XNWB 0001; experiment: as above; details: imipenem 4 μg/mL fixed
Method: as §1

[3] = system: Klebsiella pneumoniae XNWB 0004; experiment: as above; details: imipenem 4 μg/mL fixed
Method: as §1

[4] = system: Klebsiella pneumoniae XNWB 0006; experiment: as above; details: imipenem 4 μg/mL fixed
Method: as §1

[5] = system: Klebsiella pneumoniae XNWB 0002; experiment: as above; details: imipenem 4 μg/mL fixed
Method: as §1

[6] = system: Pseudomonas aeruginosa XNWB 0008; experiment: as above; details: imipenem 4 μg/mL fixed
Method: as §1

[7] = system: Klebsiella pneumoniae XNWB 0005; experiment: as above; details: imipenem 4 μg/mL fixed
Method: as §1

[8] = system: Acinetobacter baumannii XNWB 0007; experiment: as above; details: imipenem 4 μg/mL fixed
Method: as §1

[9] = system: Klebsiella pneumoniae XNWB 0003; experiment: MIC assay of test compounds combined with ceftazidime (8 μg/mL); details: ceftazidime 8 μg/mL fixed
Method: as §1

[10] = system: Klebsiella pneumoniae XNWB 0001; experiment: as above; details: ceftazidime 8 μg/mL fixed
Method: as §1

[11] = system: Klebsiella pneumoniae XNWB 0004; experiment: as above; details: ceftazidime 8 μg/mL fixed
Method: as §1

[12] = system: Klebsiella pneumoniae XNWB 0006; experiment: as above; details: ceftazidime 8 μg/mL fixed
Method: as §1

[13] = system: Klebsiella pneumoniae XNWB 0002; experiment: as above; details: ceftazidime 8 μg/mL fixed
Method: as §1

[14] = system: Pseudomonas aeruginosa XNWB 0008; experiment: as above; details: ceftazidime 8 μg/mL fixed
Method: as §1

[15] = system: Klebsiella pneumoniae XNWB 0005; experiment: as above; details: ceftazidime 8 μg/mL fixed
Method: as §1

[16] = system: Acinetobacter baumannii XNWB 0007; experiment: as above; details: ceftazidime 8 μg/mL fixed
Method: as §1

SMILES	The minimum concentration of test compounds combined with imipenem (4 μg/mL) for bacteriostasis [1]	The minimum concentration of test compounds combined with imipenem (4 μg/mL) for bacteriostasis [2]	The minimum concentration of test compounds combined with imipenem (4 μg/mL) for bacteriostasis [3]	The minimum concentration of test compounds combined with imipenem (4 μg/mL) for bacteriostasis [4]	The minimum concentration of test compounds combined with imipenem (4 μg/mL) for bacteriostasis [5]	The minimum concentration of test compounds combined with imipenem (4 μg/mL) for bacteriostasis [6]	The minimum concentration of test compounds combined with imipenem (4 μg/mL) for bacteriostasis [7]	The minimum concentration of test compounds combined with imipenem (4 μg/mL) for bacteriostasis [8]	The minimum concentration of test compounds combined with ceftazidime (8 μg/mL) for bacteriostasis [9]	The minimum concentration of test compounds combined with ceftazidime (8 μg/mL) for bacteriostasis [10]	The minimum concentration of test compounds combined with ceftazidime (8 μg/mL) for bacteriostasis [11]	The minimum concentration of test compounds combined with ceftazidime (8 μg/mL) for bacteriostasis [12]	The minimum concentration of test compounds combined with ceftazidime (8 μg/mL) for bacteriostasis [13]	The minimum concentration of test compounds combined with ceftazidime (8 μg/mL) for bacteriostasis [14]	The minimum concentration of test compounds combined with ceftazidime (8 μg/mL) for bacteriostasis [15]	The minimum concentration of test compounds combined with ceftazidime (8 μg/mL) for bacteriostasis [16]
N=C(N)NCCc1nnc([C@@H]2CC3(CC3)[C@@H]3CN2C(=O)N3OS(=O)(=O)O)o1 [Example 5, (1R,4S)-4-(5-(2-guanidinoethyl)-1,3,4-oxadiazol-2-yl)-6-oxo-5,7-diazaspiro[bicycle [3.2.1]octane-2,1′-cyclopropan]-7-yl sulfate]	A (A: <8 μg/mL)	A (A: <8 μg/mL)	A (A: <8 μg/mL)	A (A: <8 μg/mL)	A (A: <8 μg/mL)	B (B: 8-16 μg/mL)	A (A: <8 μg/mL)	B (B: 8-16 μg/mL)	A (A: <8 μg/mL)	A (A: <8 μg/mL)	B (B: 8-16 μg/mL)	A (A: <8 μg/mL)	A (A: <8 μg/mL)	C (C: 16-128 μg/mL)	B (B: 8-16 μg/mL)	C (C: 16-128 μg/mL)
NCCCc1nnc([C@@H]2CC3(CC3)[C@@H]3CN2C(=O)N3OS(=O)(=O)O)o1 [Example 6, sodium (1R,4S)-4-(5-(3-aminopropyl)-1,3,4-oxadiazol-2-yl)-6-oxo-5,7-diazaspiro [bicycle[3.2.1]octane-2,1′-cyclopropan]-7-yl sulfate]	A (A: <8 μg/mL)	A (A: <8 μg/mL)	A (A: <8 μg/mL)	A (A: <8 μg/mL)	A (A: <8 μg/mL)	B (B: 8-16 μg/mL)	A (A: <8 μg/mL)	B (B: 8-16 μg/mL)	B (B: 8-16 μg/mL)	A (A: <8 μg/mL)	B (B: 8-16 μg/mL)	A (A: <8 μg/mL)	A (A: <8 μg/mL)	C (C: 16-128 μg/mL)	B (B: 8-16 μg/mL)	C (C: 16-128 μg/mL)
NCCCCc1nnc([C@@H]2CC3(CC3)[C@@H]3CN2C(=O)N3OS(=O)(=O)O)o1 [Example 7, (1R,4S)-4-(5-(4-aminobutyl)-1,3,4-oxadiazol-2-yl)-6-oxo-5,7-diazaspiro[bicycle[3.2.1]octane-2,1′-cyclopropan]-7-yl sulfate]	A (A: <8 μg/mL)	A (A: <8 μg/mL)	A (A: <8 μg/mL)	A (A: <8 μg/mL)	A (A: <8 μg/mL)	B (B: 8-16 μg/mL)	A (A: <8 μg/mL)	B (B: 8-16 μg/mL)	B (B: 8-16 μg/mL)	B (B: 8-16 μg/mL)	B (B: 8-16 μg/mL)	A (A: <8 μg/mL)	A (A: <8 μg/mL)	C (C: 16-128 μg/mL)	B (B: 8-16 μg/mL)	C (C: 16-128 μg/mL)
N=C1NCC(c2nnc([C@@H]3CC4(CC4)[C@@H]4CN3C(=O)N4OS(=O)(=O)O)o2)N1 (stereo partly drawn) [Example 8, (1R,4S)-4-(5-(2-iminoimidazolidin-4-yl)-1,3,4-oxadiazol-2-yl)-6-oxo-5,7-diazaspiro [bicyclo[3.2.1]octane-2,1′-cyclopropan]-7-yl sulfate]	A (A: <8 μg/mL)	A (A: <8 μg/mL)	A (A: <8 μg/mL)	A (A: <8 μg/mL)	A (A: <8 μg/mL)	A (A: <8 μg/mL)	A (A: <8 μg/mL)	A (A: <8 μg/mL)	A (A: <8 μg/mL)	A (A: <8 μg/mL)	A (A: <8 μg/mL)	A (A: <8 μg/mL)	A (A: <8 μg/mL)	B (B: 8-16 μg/mL)	A (A: <8 μg/mL)	C (C: 16-128 μg/mL)
